≈ marks a conversion by molar mass, not a printed value. Where “and” joins values, the source holds several entries; their conditions need not be identical. Equal entries are not always repeated. Where two headings read alike, the source gives them in different places.
Experiments:
S. aureus = experiment: Minimum inhibitory concentration, broth dilution, S. aureus strains; format: cell-based, Staphylococcus aureus
Procedure: (§1) The minimum inhibitory concentration (MIC) defines the lowest concentration of a compound required to inhibit the growth. A single colony of the bacteria being tested was grown in 5 mL of liquid growth media. Following overnight growth, the culture was diluted 100-fold into fresh media and incubated at 37°C until the cells reached mid-log phase (OD600 of 0.3 to 0.5). The cells were diluted 10,000-fold into fresh media and the MIC determined for each of the strains by adding 2 μL of the diluted compound to 198 μL of the diluted cells in a clear 96-well plate. The plates were incubated at 37°C overnight and the optical density at 600 nm was measured for each well. All MIC assays were performed in triplicate.

HEK293 cells = experiment: Toxicity against human HEK293 cells; format: cell-based
Description: The experimental model that we have employed is Staphyloccocus aureus strain ATCC 29213. We have used the cell line HEK293, as a control for EN-7 toxicity against human cells.

[1] = target: T1, S. aureus topoisomerase IV (Staphylococcus aureus, UniProt P0C1S7+P0C1U9); experiment: S. aureus topoisomerase IV decatenation; format: biochemical; conditions: purified S. aureus topoisomerase IV; no activity up to; read-out: IC50, topoisomerase IV-catalyzed decatenation
T1 construct: purchased Inspiralis Inc. SAD4001
Procedure: 1 U of topoisomerase IV was incubated with 200 ng kDNA DNA in a 30 μl reaction at 37 C for 30 minutes under the following conditions: 50 mM HEPES-KOH (pH 7.6), 100 mM potassium glutamate, 10 mM magnesium acetate, 10 mM dithiothreitol, 1 mM ATP and 50 μg/mL BSA. Each reaction was stopped by the addition of 30 μl chloroform/iso-amyl alcohol (24:1) and 20 μl Stop Dye, before being loaded on a 1.0% TAE agarose gel. Gels run at 90 V for 2 hours.
As for E coli topoisomerase IV except assay conditions were: 50 mM Tris-HCl (7.5), 5 mM MgCl2, 5 mM DTT, 1.5 mM ATP, 350 mM potassium glutamate and 0.05 mg/mL BSA. Gels run at 80 V for 2 hours.

E. coli gyrase = target: T2, E. coli gyrase (Escherichia coli, UniProt P0AES4+P0AES6); experiment: E. coli gyrase supercoiling; format: biochemical; conditions: purified E. coli gyrase
T2 construct: purchased Inspiralis Inc. K0001
Procedure: (§2) 1 U of DNA gyrase was incubated with 0.5 μg of relaxed pBR322 DNA in a 30 μl reaction at 37°C for 30 minutes under the following conditions: 35 mM Tris.HCl (pH 7.5), 24 mM KCl, 4 mM MgCl2, 2 mM DTT, 1.8 mM Spermidine, 1 mM ATP, 6.5% (w/v) glycerol and 0.1 mg/mL BSA. Each reaction was stopped by the addition of 30 μl chloroform/iso-amyl alcohol (24:1) and 20 μl Stop Dye (40% sucrose, 100 mM Tris.HCl (pH 7.5), 10 mM EDTA, 0.5 μg/mL bromophenol blue), before being loaded on a 1.0% TAE (Tris.acetate […], EDTA […]) agarose gel. Gels run at 90 V for 2 hours. Bands were visualized by ethidium staining for 20 minutes and destaining in water for 20 minutes. Gels were scanned using a gel documentation system (GeneGenius, Syngene, Cambridge, UK) and percent inhibition levels obtained with gel scanning software (GeneTools, Syngene, Cambridge,UK).

S. aureus gyrase [2] = target: T3, S. aureus gyrase (Staphylococcus aureus, UniProt P0A0K8+P20831); experiment: S. aureus gyrase supercoiling; format: biochemical; conditions: purified S. aureus gyrase, wild-type
T3 construct: purchased Inspiralis Inc. SAS4001 (supercoiling kit); SAGC001 (cleavage assay kit)
Procedure: as §2
(§3) As for E. coli gyrase except assay conditions were: 40 mM HEPES. KOH (pH 7.6), 10 mM magnesium acetate, 10 mM DTT, 2 mM ATP, 500 mM potassium glutamate, and 0.05 mg/mL BSA. Gels run at 80 V for 3 hours.

S. aureus gyrase [3] = target: T3, S. aureus gyrase; experiment: S. aureus gyrase relaxation; format: biochemical; conditions: ATP-independent
Procedure: 1 U of gyrase was incubated with 0.5 μg of supercoiled pBR322 DNA in a 30 μL reaction at 37°C for 60 minutes under the following conditions: 50 mM Tris.HCl (pH 7.5), 5 mM MgCl2,5 mM DTT, 350 mM potassium glutamate, and 0.05 mg/mL albumin. Each reaction was stopped by the addition of 30 μL chloroform/iso-amyl alcohol (24:1) and 20 μl Stop Dye, before being loaded on a 1.0% TAE agarose gel. Gels run at 80 V for 2 hours.

E. coli = experiment: Minimum inhibitory concentration, broth dilution, E. coli strains; format: cell-based, Escherichia coli
Procedure: as §1

[4] = target: T4, S. aureus gyrase GyrA S84L (Staphylococcus aureus, UniProt P0A0K8+P20831, S84L); experiment: Supercoiling inhibition of S. aureus gyrase mutant GyrA S84L; format: biochemical
T4 construct: purchased Inspiralis Inc. SAAS84L01
Procedure: as §2, §3

S. venezuelae = S. venezuelae sporulation inhibition disk diffusion assay (whi phenotype, SEM); format: cell-based, Streptomyces venezuelae; conditions: filter disk, 10 μL of 2.5 mM
Procedure: A lawn of S. venezuelae spores was plated on MYM agar plates and allowed to dry. For the initial screen, 2 μL of each molecule at 2.5 mM was spotted directly to the agar plate. For known antibiotics or follow-up screening, 10 μL of molecule was added to a drug disk, allowed to dry, and placed on the agar plate. The S. venezuelae plate was incubated at 30°C for 48 hours and photographed. The whi phenotype was identified by eye. Hits were selected based on their ability to induce a whi phenotype at sub-inhibitory concentrations and scored by eye on the size of the induced whi region and the zone of inhibition.
To prepare samples for SEM, the agar plate containing a lawn of S. venezuelae was cut at the edge of the zone of inhibition and fixed with 2% glutaraldehyde in 0.1% sodium cacodylate buffer followed by sputter coating with gold. Images were obtained and processed using a FEI XL30 ESEM. The contrast of the resulting images was adjusted to highlight the appearance or lack of spore formation.

O=C(/C=C/c1cccc2cccnc12)NNC(=O)c1cc(-c2ccccc2)on1 [EN-7] was tested, and the MIC (S. aureus; S. aureus clinical strain C0018, read-out: MIC) was greater than 128 µM, the MIC (S. aureus; S. aureus clinical strain C0032, read-out: MIC) was greater than 128 µM and the MIC (S. aureus; S. aureus clinical strain C0117, read-out: MIC) was greater than 128 µM. It also gave an MIC (S. aureus; Staphylococcus aureus, ATCC29213, S. aureus ATCC 29213 (wild-type, parent strain), read-out: MIC) of 1 µM, an MIC (S. aureus; Staphylococcus aureus, ATCC29213, nine EN-7-resistant S. aureus ATCC 29213 mutants (mut-1 to mut-9), 16 μM highest concentration tested) greater than 16 µM and an MIC (S. aureus; Staphylococcus aureus, ATCC29213, three S. aureus ATCC 29213 GyrB K417E allelic exchange strains) greater than 128 µM. It also gave an MIC (S. aureus; Staphylococcus aureus, ATCC 29213 / ATCC 33591, S. aureus three laboratory strains (ATCC 29213, TCH1516, ATCC 33591) and four clinical strains (C0017, C0024, C0023, C0019), read-out: MIC) of 0.4 µg/mL, an MIC (S. aureus; Staphylococcus aureus, ATCC33519, S. aureus ATCC 33519, read-out: MIC) of 1 µM and an MIC (S. aureus; Staphylococcus aureus, S. aureus TCH 1516, read-out: MIC) of 1 µM. It also gave an MIC (S. aureus; Staphylococcus aureus, S. aureus clinical strain C0017, read-out: MIC) of 1 µM, an MIC (S. aureus; Staphylococcus aureus, S. aureus clinical strain C0018, read-out: MIC) greater than 128 µM and an MIC (S. aureus; Staphylococcus aureus, S. aureus clinical strain C0019, read-out: MIC) of 1 µM. The MIC (S. aureus; Staphylococcus aureus, S. aureus clinical strain C0023, read-out: MIC) was 1 µM, the MIC (S. aureus; Staphylococcus aureus, S. aureus clinical strain C0024, read-out: MIC) was 1 µM and the MIC (S. aureus; Staphylococcus aureus, S. aureus clinical strain C0032, read-out: MIC) was greater than 128 µM. The MIC (S. aureus; Staphylococcus aureus, S. aureus clinical strain C0112, read-out: MIC) was 4 µM, the MIC (S. aureus; Staphylococcus aureus, S. aureus clinical strain C0117, read-out: MIC) was greater than 128 µM and the “Toxicity to human HEK293 cells” value (HEK293 cells) was “no toxicity”. It also gave an IC50 [1] greater than 100000 nM, an IC50 (E. coli gyrase) of 1750 nM and an IC50 (S. aureus gyrase [2]) of 85 nM. For the same molecule, the “Inhibition of gyrase-induced DNA relaxation” value (S. aureus gyrase [3]) was “inhibit”, the IC50 (S. aureus gyrase [3]; read-out: IC50, gyrase-induced relaxation) was 100 to 500 nM and the MIC (E. coli; E. coli BW25113, read-out: MIC) was greater than 64 µM. The MIC (E. coli; E. coli MC1061, read-out: MIC) was greater than 64 µM, the MIC (E. coli; Escherichia coli, BW25113, E. coli BW25113, read-out: MIC) was greater than 64 µM and the MIC (E. coli; Escherichia coli, BW25113, E. coli BW25113 ΔtolC ΔbamB, outer-membrane and efflux-deficient) was 1 µM (≈ 0.384 µg/mL). The MIC (E. coli; Escherichia coli, E. coli MC1061, read-out: MIC) was greater than 64 µM, the IC50 [4] was 9960 nM and the “Increase of IC50 relative to the wild-type enzyme” value ([4]; GyrA S84L vs wild-type S. aureus gyrase, supercoiling inhibition) was > 100 fold and ~100 fold. For the same molecule, the “Susceptibility of gyrase mutant GyrA S84L” value ([4]; S. aureus gyrase) was “less susceptible”, the “Growth inhibition (zone of inhibition)” value (S. venezuelae) was “significant zone of inhibition” and the “Sporulation inhibition below the MIC for growth” value (S. venezuelae) was “striking band of inhibited sporulation”.

From PMC6856721, “Discovery of a Novel DNA Gyrase-Targeting Antibiotic through the Chemical Perturbation of Streptomyces venezuelae Sporulation” (Cell Chemical Biology, 2019)
